Measured values published in paper PMC5298241, “Mitochondria-penetrating peptides conjugated to desferrioxamine as chelators for mitochondrial labile iron” (PLoS ONE, 2017).
Where two headings read alike, the source gives them in different places. Numbered stars: 1 amine (or outer) side, 2 acyl side, 3 side chain; on linkers, the order of the positions; unused ones are H or OH. Square brackets hold non-standard residues; d marks the D form. Peptide text beside a SMILES is read from it. * marks the point of attachment. 5TAMRA = CN(C)c1ccc2c(c1)Oc1cc(N(C)C)ccc1C21OC(=O)c2cc(C(=O)*)ccc21; DFO = CC(=O)N(O)CCCCCNC(=O)CCC(=O)N(O)CCCCCNC(=O)CCC(=O)N(O)CCCCCN*; Cha = N[C@@H](CC1CCCCC1)C(=O)O; Suc = O=C(CCC(=O)[*:2])[*:1]

Key:
[1] = Antioxidant activity (iron-catalysed oxidation of DHR by ascorbate); assay type: biochemical; conditions: 20 μM chelator, 40 μM ascorbic acid, 50 μM DHR in HBS; Fe(NTA) or serum of iron-overloaded patients; 37°C, slopes 15−40 min
Protocol: The standard ferric nitrilotriacetate (Fe(NTA)) complex (1:3 Fe:NTA molar ratio) was prepared by adding FAS to a stock solution of aqueous NTA, and allowed to react for 1 h at 37°C under air so that iron is oxidized to Fe(III) (evidenced by the change of color to deep yellow). Then, 180 μL of a mixture of 40 μM ascorbic acid, 50 μM DHR, and 20 μM chelators (DFO, DFO-Tat, DFO-1A, DFO-SS02 e DFO-SS20) in HBS was placed in a 96-well microplate and treated with 20 μL of either Fe(NTA) at different concentrations or sera from iron overloaded patients. Assays were performed in duplicate. Sera samples were furnished by Dr. Nelson Hamerschlak, Albert Einstein Hospital, São Paulo. Fluorescence was measured in a BMG FluoStar Optima instrument for 60 min at 37°C (λexc/λem = 485/520 nm). The slopes (indicating rate of oxidation, presented in fluorescence units per minute) of the oxidation curves were calculated in the time range 15−40 min and were plotted against iron concentration.

[2] = system: A2780 cells; assay: cells; conditions: Homo sapiens, A2780, 24 h
Protocol: (§1) A2780 (human ovarian cancer) cell line was obtained from Fox Chase Cancer Center (USA) and cultured in RPMI-1640 medium supplemented with 10% FBS and 1% penicillin/streptomycin. Cells were incubated at 37°C in a humidified incubator with a 5% CO2.
(§2) A2780 cells were plated in 96-well flat-bottom tissue culture plates (Starstedt) at 25,000 cells per well. The culture medium was removed, and cells were washed. Cellular viability was analyzed after an overnight incubation at 37°C with 5% CO2 using the CCK-8 viability dye (Dojindo, Rockville, Maryland) at an absorbance of 450 nm. From the resulting dose-response curves, 50% growth inhibitory concentration (IC50) values were determined by interpolation [22].

[3] = system: A2780 cells
Protocol: as §1, §2

[4] = system: mitochondria of A2780 cells; assay: Mitochondrial localization (colocalization with MitoTracker Deep Red); assay type: cell-based, human; conditions: TAMRA-labeled mtDFO 1–10 μM, 1 h, MitoTracker Deep Red 30 min, epifluorescence microscopy, ImageJ
Protocol: A2780 cells were seeded in an imaging dish in 2 mL of growth medium at 60% confluence. The growth medium was swapped with premixed medium containing 1–10 μM of TAMRA-mtDFO, and the cells were allowed to incubate with the dye for 1 h. MitoTracker Deep Red was added to the cells at 1.0–4.0 μM concentrations and allowed to incubate for 30 min. At the end of the incubation period, the medium was aspirated, and the cells were washed with 3 × 1 mL PBS and incubated with 2 mL of dye-free DMEM. The imaging experiments were performed using a Zeiss Axiovert 200M inverted epifluorescence microscope equipped with an EM-CCD digital camera (Hamamatsu) and a MS200 XY Piezo Z stage (Applied Scientific Instruments). The light source was an X-Cite 120 metal-halide lamp (EXFO), and the fluorescence images were obtained with an oil-immersion objective at 63× magnification. The microscope was operated by the Volocity software program of Perkin-Elmer. Colocalization of the dyes was quantitated using the program ImageJ using a previously described protocols.

[5] = A2780 cells, 24 h (overnight incubation at 37°C, 5% CO2), CCK-8 viability dye, absorbance 450 nm, interpolation of dose-response curves, average ± s.d. of at least three independent experiments

Compound: CC(=O)N(O)CCCCCNC(=O)CCC(=O)N(O)CCCCCNC(=O)CCC(=O)N(O)CCCCCN [DFO, Desferrioxamine]
- Suppression of iron-catalysed oxidation of the DHR probe [1]: efficiently suppressed
- IC50 [2]: 1450 ± 130 µM

Compound: CC(=O)N(O)CCCCCNC(=O)CCC(=O)N(O)CCCCCNC(=O)CCC(=O)N(O)CCCCCNC(=O)CCC(=O)N[C@@H](CC1CCCCC1)C(=O)N[C@H](CCCNC(=N)N)C(=O)N[C@@H](CC1CCCCC1)C(=O)N[C@@H](CCCCN)C(=O)N[C@@H](CC1CCCCC1)C(=O)N[C@H](CCCNC(=N)N)C(=O)N[C@@H](CC1CCCCC1)C(=O)N[C@@H](CCCCN)C(=O)N[C@@H](CCCCNC(=O)c1ccc2c(c1)C(=O)OC21c2ccc(N(C)C)cc2Oc2cc(N(C)C)ccc21)C(N)=O [DFO-1A-TAMRA] ({DFO-Suc}-[Cha][dR][Cha]K[Cha][dR][Cha]KK(5TAMRA)-NH2)
- IC50 ([3]; 24 h): 2.97 ± 1.06 µM

Compound: CC(=O)N(O)CCCCCNC(=O)CCC(=O)N(O)CCCCCNC(=O)CCC(=O)N(O)CCCCCNC(=O)CCC(=O)N[C@@H](CC1CCCCC1)C(=O)N[C@H](CCCNC(=N)N)C(=O)N[C@@H](CC1CCCCC1)C(=O)N[C@@H](CCCCN)C(=O)N[C@@H](CC1CCCCC1)C(=O)N[C@H](CCCNC(=N)N)C(=O)N[C@@H](CC1CCCCC1)C(=O)N[C@@H](CCCCN)C(N)=O [DFO-1A] ({DFO-Suc}-[Cha][dR][Cha]K[Cha][dR][Cha]K-NH2)
- IC50 ([3]; 24 h): 108 ± 2.51 µM

Compound: CC(=O)N(O)CCCCCNC(=O)CCC(=O)N(O)CCCCCNC(=O)CCC(=O)N(O)CCCCCNC(=O)CCC(=O)N[C@@H](Cc1c(C)cc(O)cc1C)C(=O)N[C@H](CCCNC(=N)N)C(=O)N[C@@H](Cc1ccccc1)C(=O)N[C@@H](CCCCN)C(N)=O [DFO-SS02]
- IC50 [3, 5]: 42.9 ± 1.06 µM

Compound: CC(=O)N(O)CCCCCNC(=O)CCC(=O)N(O)CCCCCNC(=O)CCC(=O)N(O)CCCCCNC(=O)CCC(=O)N[C@@H](Cc1ccccc1)C(=O)N[C@H](CCCNC(=N)N)C(=O)N[C@@H](Cc1ccccc1)C(=O)N[C@@H](CCCCN)C(=O)N[C@@H](CCCCNC(=O)c1ccc2c(c1)C(=O)OC21c2ccc(N(C)C)cc2Oc2cc(N(C)C)ccc21)C(N)=O [DFO-SS20-TAMRA] ({DFO-Suc}-F[dR]FKK(5TAMRA)-NH2)
- IC50 ([3]; 24 h): 7.91 ± 1.19 µM

Compound: CC(=O)N(O)CCCCCNC(=O)CCC(=O)N(O)CCCCCNC(=O)CCC(=O)N(O)CCCCCNC(=O)CCC(=O)N[C@@H](Cc1ccccc1)C(=O)N[C@H](CCCNC(=N)N)C(=O)N[C@@H](Cc1ccccc1)C(=O)N[C@@H](CCCCN)C(N)=O [DFO-SS20] ({DFO-Suc}-F[dR]FK-NH2)
- IC50 ([3]; 24 h): 62.4 ± 1.13 µM

Compound: CC(=O)N(O)CCCCCNC(=O)CCC(=O)N(O)CCCCCNC(=O)CCC(=O)N(O)CCCCCNC(=O)CCC(=O)N[C@@H](CCCNC(=N)N)C(=O)N[C@@H](CCCCN)C(=O)N[C@@H](CCCCN)C(=O)N[C@@H](CCCNC(=N)N)C(=O)N[C@@H](CCCNC(=N)N)C(=O)N[C@@H](CCC(N)=O)C(=O)N[C@@H](CCCNC(=N)N)C(=O)N[C@@H](CCCNC(=N)N)C(=O)N[C@@H](CCCNC(=N)N)C(=O)O [DFO-TAT]
- IC50 [3, 5]: 111 ± 1.17 µM

Compound: carboxy-tetramethylrhodamine [TAMRA]
- Rr = Pearson correlation coefficient (colocalization with MitoTracker) [4]: does not locate by itself in the mitochondria
